Experimental data taken from patent US10233191B2, “Fused piperidine amides as modulators of ion channels” (Vertex Pharmaceuticals Incorporated, priority 2013, dated 2019).

Target: T1, NaV 1.7 (Homo sapiens, UniProt Q15858)
T1 construct: expressed in transfected cells; host or cells: HEK cells
Assay: E-VIPR optical membrane potential assay with electrical stimulation
Assay type: cell-based
Details: active against one or more sodium channels; assay/subtype not specified in Table 4; read-out: IC50 Binned Activity Data
How it was run: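 HEK cells expressing human NaV1.7, loaded with CC2-DMPE/DiSBAC6(3) FRET dyes, then exposed to compounds for 20-35 min at room temperature (0.625% DMSO). Electrical stimulation applied for 9 s with 400 Hz scanning. Read-out is the background-subtracted 460/580 nm emission ratio, normalized.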

T1 sequence (Q15858 whole entry): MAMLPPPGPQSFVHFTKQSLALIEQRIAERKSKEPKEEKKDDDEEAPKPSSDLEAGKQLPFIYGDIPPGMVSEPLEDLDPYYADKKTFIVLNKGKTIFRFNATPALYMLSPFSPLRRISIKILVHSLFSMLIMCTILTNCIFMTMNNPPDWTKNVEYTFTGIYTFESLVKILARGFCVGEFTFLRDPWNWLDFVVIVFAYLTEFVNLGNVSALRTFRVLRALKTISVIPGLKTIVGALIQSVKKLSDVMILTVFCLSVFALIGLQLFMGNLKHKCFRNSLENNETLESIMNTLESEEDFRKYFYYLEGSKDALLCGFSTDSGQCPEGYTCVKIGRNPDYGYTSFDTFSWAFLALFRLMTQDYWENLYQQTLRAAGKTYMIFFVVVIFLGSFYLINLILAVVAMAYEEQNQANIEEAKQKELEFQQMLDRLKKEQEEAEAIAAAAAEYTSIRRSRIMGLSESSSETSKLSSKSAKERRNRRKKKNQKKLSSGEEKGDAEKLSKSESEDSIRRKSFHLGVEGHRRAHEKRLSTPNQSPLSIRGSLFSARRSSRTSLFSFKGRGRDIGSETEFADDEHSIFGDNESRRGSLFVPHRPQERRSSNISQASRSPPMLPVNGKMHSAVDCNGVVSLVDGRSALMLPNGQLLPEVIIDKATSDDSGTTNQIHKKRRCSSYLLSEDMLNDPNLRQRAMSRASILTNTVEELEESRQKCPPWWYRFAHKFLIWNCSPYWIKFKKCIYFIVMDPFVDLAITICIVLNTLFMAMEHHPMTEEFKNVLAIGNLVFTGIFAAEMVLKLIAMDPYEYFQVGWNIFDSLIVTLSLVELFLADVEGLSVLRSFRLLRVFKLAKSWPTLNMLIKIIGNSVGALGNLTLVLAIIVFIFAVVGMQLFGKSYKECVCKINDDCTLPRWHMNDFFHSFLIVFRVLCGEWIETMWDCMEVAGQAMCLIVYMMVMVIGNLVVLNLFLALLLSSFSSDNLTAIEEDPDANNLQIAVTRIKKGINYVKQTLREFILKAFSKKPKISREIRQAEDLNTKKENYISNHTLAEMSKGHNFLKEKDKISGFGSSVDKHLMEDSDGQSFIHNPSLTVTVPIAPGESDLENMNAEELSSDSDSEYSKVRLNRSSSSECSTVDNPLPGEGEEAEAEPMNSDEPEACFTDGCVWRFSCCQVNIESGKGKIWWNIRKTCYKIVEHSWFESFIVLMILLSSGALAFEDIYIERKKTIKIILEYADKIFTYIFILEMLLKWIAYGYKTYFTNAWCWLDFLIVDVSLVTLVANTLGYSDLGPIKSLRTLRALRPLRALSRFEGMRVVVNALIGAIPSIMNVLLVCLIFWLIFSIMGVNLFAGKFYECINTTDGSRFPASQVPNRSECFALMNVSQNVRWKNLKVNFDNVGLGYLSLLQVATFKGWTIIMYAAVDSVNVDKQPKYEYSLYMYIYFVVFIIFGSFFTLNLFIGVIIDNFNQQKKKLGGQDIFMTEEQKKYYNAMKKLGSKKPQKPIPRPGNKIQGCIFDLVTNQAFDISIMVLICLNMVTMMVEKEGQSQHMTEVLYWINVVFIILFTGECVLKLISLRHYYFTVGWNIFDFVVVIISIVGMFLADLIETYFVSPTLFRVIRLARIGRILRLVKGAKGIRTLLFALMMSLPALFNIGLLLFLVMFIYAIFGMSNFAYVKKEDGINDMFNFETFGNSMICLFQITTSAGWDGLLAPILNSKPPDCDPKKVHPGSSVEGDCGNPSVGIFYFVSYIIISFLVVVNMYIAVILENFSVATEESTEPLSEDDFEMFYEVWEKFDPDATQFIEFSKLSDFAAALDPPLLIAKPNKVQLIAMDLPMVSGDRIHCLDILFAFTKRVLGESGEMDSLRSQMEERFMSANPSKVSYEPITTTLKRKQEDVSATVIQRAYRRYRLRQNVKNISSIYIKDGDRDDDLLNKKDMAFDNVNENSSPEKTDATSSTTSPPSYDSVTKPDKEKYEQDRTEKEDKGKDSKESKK

Structure (SMILES) | IC50 [nM]
Cc1cc(C(=O)N2CC[C@]3(c4cscn4)OCOC3C2)ccc1OCCOC(F)(F)F (stereo partly drawn) [Compound 142] | ≤ 2000
O=C(c1cccc2cccnc12)N1CCC2(c3ccccc3)CC2C1 (stereo not drawn) [Compound 143] | ≤ 2000
Cc1nc([C@]23CCN(C(=O)c4ccc(OCCOC(F)(F)F)c(C)c4)CC2OCO3)cs1 (stereo partly drawn) [Compound 144] | ≤ 2000
O=C(c1ccc(OCCOC(F)(F)F)c(Cl)c1)N1CC[C@]2(c3ncccc3F)OCOC2C1 (stereo partly drawn) [Compound 145] | ≤ 2000
O=C(c1ccc(OCC2CC(F)(F)C2)c(Cl)c1)N1CC[C@]2(c3ccccn3)OCOC2C1 (stereo partly drawn) [Compound 146] | ≤ 2000
COc1cc(C(=O)N2CCC3(c4ccccc4)CC3C2)ccc1C(C)(C)O (stereo not drawn) [Compound 147] | ≤ 2000
COc1cc(C(=O)N2CC[C@@]3(c4ccccc4)OCOC3C2)ccc1OCCOC(F)(F)F (stereo partly drawn) [Compound 148] | ≤ 2000
Cc1nc([C@]23CCN(C(=O)c4ccc(OCCOC(F)(F)F)c(Cl)c4)CC2OCO3)cs1 (stereo partly drawn) [Compound 149] | ≤ 2000
COc1cc(C(=O)N2CC[C@]3(c4ccccc4)OCOC3C2)ccc1OCCOC(F)(F)F (stereo partly drawn) [Compound 150] | ≤ 2000
COc1cc(C(=O)N2CCC3(c4ccccc4)CC3C2)ccc1OCCC(C)C (stereo not drawn) [Compound 151] | ≤ 2000
Cc1cc(C(=O)N2CC[C@]3(c4ncccc4Cl)OCOC3C2)ccc1OCC(C)(C)F (stereo partly drawn) [Compound 152] | ≤ 2000
COc1nc(C(=O)N2CC[C@]3(c4cc(C(F)(F)F)ccn4)OCOC3C2)ccc1OCCOC(F)(F)F (stereo partly drawn) [Compound 153] | ≤ 2000
COc1cc(C(=O)N2CC[C@]3(c4cccc(C)n4)OCOC3C2)ccc1OCCOC(F)(F)F (stereo partly drawn) [Compound 154] | ≤ 2000
COc1cc(C(=O)N2CC[C@]3(c4ncccc4Cl)OCOC3C2)ccc1OCCOC(F)(F)F (stereo partly drawn) [Compound 155] | ≤ 2000
CC(Oc1ccc(C(=O)N2CC[C@]3(c4ccccn4)OCOC3C2)cc1Cl)C(F)(F)F (stereo partly drawn) [Compound 156] | ≤ 2000
O=C(c1ccc(OCCOC(F)(F)F)c(Cl)c1)N1CC[C@]2(c3ccccn3)OCOC2C1 (stereo partly drawn) [Compound 157] | ≤ 2000
COc1cc(C(=O)N2CCC3(c4ccccc4)CC3C2)ccc1OCC(C)(C)F (stereo not drawn) [Compound 158] | ≤ 2000
[2H]C1([2H])OC2CN(C(=O)c3ccc(OCCOC(F)(F)F)c(OC)n3)CC[C@]2(c2ccccc2)O1 (stereo partly drawn) [Compound 159] | ≤ 2000
Cc1nc(C(=O)N2CC[C@]3(c4ccccn4)OCOC3C2)ccc1OCCOC(F)(F)F (stereo partly drawn) [Compound 160] | ≤ 2000
Cc1cc(C(=O)N2CC[C@]3(c4ccccc4)OCOC3C2)ccc1OCC(C)(C)F (stereo partly drawn) [Compound 161] | ≤ 2000
COc1nc(C(=O)N2CC[C@]3(c4cccc(F)c4F)OCOC3C2)ccc1OCCOC(F)(F)F (stereo partly drawn) [Compound 162] | ≤ 2000
COc1cc(C(=O)N2CC[C@]3(c4cc(F)ccc4F)OCOC3C2)ccc1OCCOC(F)(F)F (stereo partly drawn) [Compound 163] | ≤ 2000
CC(COc1ccc(C(=O)N2CC[C@]3(c4ccccn4)OCOC3C2)cc1Cl)CC(F)(F)F (stereo partly drawn) [Compound 164] | ≤ 2000
Cc1cc(C(=O)N2CC[C@]3(c4ccccn4)OCOC3C2)ccc1OCCOC(F)(F)F (stereo partly drawn) [Compound 165] | ≤ 2000
O=C(c1ccc(OCC(F)(F)C(F)F)c(Cl)c1)N1CC[C@]2(c3ccccn3)OCOC2C1 (stereo partly drawn) [Compound 166] | ≤ 2000
Cc1cc(C(=O)N2CC[C@]3(c4nccs4)OCOC3C2)ccc1OCCOC(F)(F)F (stereo partly drawn) [Compound 167] | ≤ 2000
Cc1cc(C(=O)N2CC[C@@]3(c4nccs4)OCOC3C2)ccc1OCCOC(F)(F)F (stereo partly drawn) [Compound 168] | ≤ 2000
COc1nc(C(=O)N2CC[C@]3(c4cccc(Cl)c4)OCOC3C2)ccc1OCC1CC(F)(F)C1 (stereo partly drawn) [Compound 175] | ≤ 2000

Second part, the compound after the results:

IC50 [nM] | Structure (SMILES)
≤ 2000 | COc1cc(C(=O)N2CC[C@]3(c4cccc(C(F)(F)F)n4)OCOC3C2)ccc1OCCOC(F)(F)F (stereo partly drawn) [Compound 169]
≤ 2000 | COc1cc(C(=O)N2CC[C@]3(c4cccc(Cl)c4)OCOC3C2)ccc1OC(C)C(F)(F)F (stereo partly drawn) [Compound 170]
≤ 2000 | Cc1cc(C(=O)N2CCC3(c4ccccc4)CC3C2)ccc1OCC(C)(C)O (stereo not drawn) [Compound 171]
≤ 2000 | [2H]C1([2H])OC2CN(C(=O)c3ccc(OCC4CC(F)(F)C4)c(OC)c3)CC[C@]2(c2cc(F)cc(F)c2)O1 (stereo partly drawn) [Compound 172]
≤ 2000 | [2H]C1([2H])OC2CN(C(=O)c3ccc(OC(C)C(F)(F)F)c(OC)c3)CC[C@]2(c2cc(F)cc(F)c2)O1 (stereo partly drawn) [Compound 173]
≤ 2000 | [2H]C1([2H])OC2CN(C(=O)c3ccc(OCCOC(F)(F)F)c(OC)c3)CC[C@]2(c2cc(F)cc(F)c2)O1 (stereo partly drawn) [Compound 174]
≤ 2000 | COc1cc(C(=O)N2CC[C@]3(c4cccc(Cl)c4)OCOC3C2)ccc1OCC1CC(F)(F)C1 (stereo partly drawn) [Compound 176]
≤ 2000 | [2H]C1([2H])OC2CN(C(=O)c3ccc(OCC4CC(F)(F)C4)c(OC)c3)CC[C@]2(c2cccc(F)c2)O1 (stereo partly drawn) [Compound 177]
≤ 2000 | COc1nc(C(=O)N2CCC3(c4ccccc4)CC3C2)ccc1OCCOC(F)(F)F (stereo not drawn) [Compound 178]
≤ 2000 | COc1cc(C(=O)N2CC[C@]3(c4cc(C(F)(F)F)ccn4)OCOC3C2)ccc1OCCOC(F)(F)F (stereo partly drawn) [Compound 179]
≤ 2000 | COc1nc(C(=O)N2CC[C@]3(c4cccc(F)c4)OCOC3C2)ccc1OCC1CC(F)(F)C1 (stereo partly drawn) [Compound 180]
≤ 2000 | [2H]C1([2H])OC2CN(C(=O)c3ccc(OCCOC(F)(F)F)c(OC)c3)CC[C@]2(c2cccc(F)c2)O1 (stereo partly drawn) [Compound 181]
≤ 2000 | Cc1cc(C(=O)N2CC[C@]3(c4ncccc4Cl)OCOC3C2)ccc1OCCOC(F)(F)F (stereo partly drawn) [Compound 182]
≤ 2000 | COc1nc(C(=O)N2CC[C@]3(c4cccc(Cl)c4)OCOC3C2)ccc1OCCOC(F)(F)F (stereo partly drawn) [Compound 183]
≤ 2000 | COc1cc(C(=O)N2CC[C@]3(c4cccc(F)c4F)OCOC3C2)ccc1OCC1CC(F)(F)C1 (stereo partly drawn) [Compound 184]
≤ 2000 | COc1nc(C(=O)N2CC[C@]3(c4cccc(F)c4)OCOC3C2)ccc1OCC(F)(F)C(F)F (stereo partly drawn) [Compound 185]
≤ 2000 | COc1cc(C(=O)N2CC[C@]3(c4cccc(F)c4F)OCOC3C2)ccc1OCCOC(F)(F)F (stereo partly drawn) [Compound 186]
≤ 2000 | COc1cc(C(=O)N2CC[C@]3(c4cccc(F)c4F)OCOC3C2)ccc1OC(C)C(F)(F)F (stereo partly drawn) [Compound 187]
≤ 2000 | COc1nc(C(=O)N2CC[C@]3(c4cccc(F)c4)OCOC3C2)ccc1OCCOC(F)(F)F (stereo partly drawn) [Compound 188]
≤ 2000 | [2H]C1([2H])OC2CN(C(=O)c3ccc(OCCOC(F)(F)F)c(OC)n3)CC[C@]2(c2cccc(F)c2)O1 (stereo partly drawn) [Compound 189]
≤ 2000 | COc1cccc([C@]23CCN(C(=O)c4ccc(OCCOC(F)(F)F)c(C)c4)CC2OCO3)n1 (stereo partly drawn) [Compound 190]

IC50 [nM] | Structure (SMILES)
≤ 2000 | Cc1nc(C(=O)N2CCC3(c4ccccc4)CC3C2)ccc1OCCOC(F)(F)F (stereo not drawn) [Compound 191]
≤ 2000 | COc1cccc([C@]23CCN(C(=O)c4ccc(OCCOC(F)(F)F)c(OC)c4)CC2OCO3)n1 (stereo partly drawn) [Compound 192]
≤ 2000 | COc1cc(C(=O)N2CC[C@]3(c4cccc(F)c4)OCOC3C2)ccc1OCC1CC(F)(F)C1 (stereo partly drawn) [Compound 193]
≤ 2000 | Cc1cccc([C@]23CCN(C(=O)c4ccc(OCCOC(F)(F)F)c(C)c4)CC2OCO3)n1 (stereo partly drawn) [Compound 194]
≤ 2000 | COc1cc(C(=O)N2CCC3(c4ccccc4)CC3C2)ccc1OCCOC(F)(F)F (stereo not drawn) [Compound 195]
≤ 2000 | COc1nc(C(=O)N2CC[C@]3(c4cccc(F)c4)OCOC3C2)ccc1OCC1C2CC(F)(F)CC12 (stereo partly drawn) [Compound 196]
≤ 2000 | COc1cc(C(=O)N2CC[C@]3(c4cc(C(F)(F)F)ccn4)OCOC3C2)ccc1OCC(F)(F)C(F)F (stereo partly drawn) [Compound 197]
≤ 2000 | COc1cc(C(=O)N2CC[C@]3(c4cc(C(F)(F)F)ccn4)OCOC3C2)ccc1OCC1(C(F)(F)F)CC1 (stereo partly drawn) [Compound 198]
≤ 2000 | COc1cc(C(=O)N2CC[C@]3(c4cccc(F)c4)OCOC3C2)ccc1N(C)CC1CC(F)(F)C1 (stereo partly drawn) [Compound 199]
≤ 2000 | COc1nc(C(=O)N2CC[C@]3(c4cccc(F)c4)OCOC3C2)ccc1OCCC1CC(F)(F)C1 (stereo partly drawn) [Compound 200]
≤ 2000 | O=C(c1ccc(OCCOC(F)(F)F)c(Cl)c1)N1CC[C@]2(c3ccccn3)COC2C1 (stereo partly drawn) [Compound 201]
≤ 2000 | O=C(c1ccc(OCCOC(F)(F)F)c(Cl)c1)N1CC[C@@]2(c3ccccn3)COC2C1 (stereo partly drawn) [Compound 202]
≤ 2000 | COc1ccnc([C@]23CCN(C(=O)c4ccc(OCC5CC(F)(F)C5)c(OC)c4)CC2OCO3)c1 (stereo partly drawn) [Compound 203]
≤ 2000 | COc1cc(C(=O)N2CC[C@]3(c4cc(C(F)(F)F)ccn4)OCOC3C2)ccc1OCC1CCC(F)(F)C1 (stereo partly drawn) [Compound 204]
> 5000 | CC(C)(F)COc1ccc(C(=O)N2CC[C@@]3(c4ccccn4)CO[C@H]3C2)cc1C(F)(F)F [Compound 205]
≤ 2000 | Cc1cc(C(=O)N2CC[C@@]3(c4ccccn4)COC3C2)ccc1OCCOC(F)(F)F (stereo partly drawn) [Compound 206]
≤ 2000 | O=C(c1ccc(OCC2(C(F)(F)F)CC2)c(Cl)c1)N1CC[C@]2(c3ccccn3)COC2C1 (stereo partly drawn) [Compound 207]
≤ 2000 | O=C(c1ccc(OCC2CC(F)(F)C2)c(Cl)c1)N1CC[C@@]2(c3ccccn3)COC2C1 (stereo partly drawn) [Compound 208]
≤ 2000 | COc1nc(C(=O)N2CC[C@@]3(c4ccccn4)COC3C2)ccc1OCC(F)(F)C(F)F (stereo partly drawn) [Compound 209]
2000 to 5000 | COc1cc(C(=O)N2CC[C@@]3(c4ccccn4)COC3C2)ccc1OCC1CC(F)(F)C1 (stereo partly drawn) [Compound 210]
